Experimental data published in PMC3280239, “Virtual Screening, Identification and In Vitro Testing of Novel Inhibitors of O-Acetyl-L-Serine Sulfhydrylase of Entamoeba histolytica” (PLoS ONE, 2012).
Like-named read-outs stand apart in the source and are kept apart here.

Legend:
[1] = molecular target: T1, O-acetyl-L-serine sulfhydrylase (EhOASS) (Entamoeba histolytica, UniProt O15570); assay: PLP fluorescence titration (ex […] nm, em […] nm); also […] inhibition of purified enzyme at […]; type: binding
T1 sequence (O15570 entry or part of it): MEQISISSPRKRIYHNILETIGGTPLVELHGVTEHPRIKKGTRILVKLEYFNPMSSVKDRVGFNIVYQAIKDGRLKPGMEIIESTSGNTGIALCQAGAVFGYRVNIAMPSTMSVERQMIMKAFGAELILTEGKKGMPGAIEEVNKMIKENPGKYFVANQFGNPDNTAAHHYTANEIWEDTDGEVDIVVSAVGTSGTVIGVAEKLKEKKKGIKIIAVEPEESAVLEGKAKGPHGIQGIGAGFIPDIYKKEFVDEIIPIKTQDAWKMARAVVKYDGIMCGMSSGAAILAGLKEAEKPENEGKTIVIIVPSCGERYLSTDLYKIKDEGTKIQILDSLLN

[2] = molecular target: T1, O-acetyl-L-serine sulfhydrylase (EhOASS); assay: as above; type: binding; remark: listed apart in the source

**Q.** For COc1ccc(C2C(C(C)=O)=C(O)C(=O)N2CCC(=O)O)cc1 (centres unmarked) [ZINC03984585, 3-[3-acetyl-4-hydroxy-2-(4-methoxyphenyl)-5-oxo-2,5-dihydro-1H-pyrrol-1-yl]propanoic acid], which Kd [1] is on record?
**A.** 0.18 µM

**Q.** Which Kd [2] does the source give for O=C(CSc1nc(O)cc(=O)[nH]1)c1c[nH]c2ccccc12 [ZINC08931589, 4-hydroxy-2-[2-(1H-indol-3-yl)-2-oxoethyl]sulfanyl-1H-pyrimidin-6-one] here?
**A.** ~8.05 µM
